According to patent publication US9605004B2, “Chemical compounds” (SYNGENTA LIMITED, priority 2013, dated 2017):

Key:
[1] = test system: a variety of test species; assay: Pre-emergence herbicidal activity (Example 8a, Table 2); format: in vivo; design: key: 0 = no damage to plant, 5 = total damage to plant; conditions: application pre-emergence, rate 1000 g/ha, evaluated after 13 days
How it was run: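 Seeds sown in standard soil in pots, held one day in glasshouse (24/16 °C day/night, 14 h light, 65% humidity), then sprayed with aqueous solution of compound formulated in acetone/water 50:50 with 0.5% Tween 20. Grown on under same conditions, watered twice daily; damage scored after 13 days (0 = none, 5 = total).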

[2] = test system: a variety of test species; assay: Post-emergence herbicidal activity (Example 8b, Table 3); format: in vivo; conditions: application post-emergence, rate 1000 g/ha, evaluated after 13 days, scale 0-5; for Herbicidal damage score, ABUTH: Abutilon theophrasti; for Herbicidal damage score, ALOMY: Alopecurus myosuroides; for Herbicidal damage score, AMARE: Amaranthus retroflexus; for Herbicidal damage score, ECHCG: Echinochloa crus-galli; for Herbicidal damage score, SETFA: Setaria faberi; for Herbicidal damage score, ZEAMX: Zea mays
How it was run: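 Seeds were sown in standard soil and cultivated for 8 days under controlled glasshouse conditions. Seedlings were then sprayed with an aqueous solution of the formulated compound containing 0.5% Tween 20. Injury was rated after a further 13 days, where 5 indicated total damage.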

Row | SMILES | Pre-emergence herbicidal activity, damage score ABUTH [1] | Pre-emergence herbicidal activity, damage score ALOMY [1] | Pre-emergence herbicidal activity, damage score AMARE [1] | Pre-emergence herbicidal activity, damage score ECHCG [1] | Pre-emergence herbicidal activity, damage score SETFA [1] | Pre-emergence herbicidal activity, damage score ZEAMX [1] | Herbicidal damage score, ABUTH [2] | Herbicidal damage score, ALOMY [2] | Herbicidal damage score, AMARE [2] | Herbicidal damage score, ECHCG [2] | Herbicidal damage score, SETFA [2] | Herbicidal damage score, ZEAMX [2]
1 | CC1=C(Cl)C(=O)N(c2cc(C(F)(F)F)n(CC(F)(F)F)n2)C1O (stereo not drawn) [Compound C9] | 2 | 3 | 3 | 4 | 4 | 2 | 4 | 5 | 5 | 5 | 5 | 3
2 | CC1=C(Cl)C(=O)N(c2cc(C#N)n(CC(F)(F)F)n2)C1O (stereo not drawn) [Compound C11] | 5 | 0 | 2 | 1 | 1 | 1 | 5 | 2 | 1 | 4 | 3 | 2
3 | CC1=C(Cl)C(=O)N(c2cc(C)n(C(F)F)n2)C1O (stereo not drawn) [Compound C12] | 5 | 3 | 5 | 4 | 3 | 2 | 5 | 4 | 5 | 5 | 5 | 3
4 | CC1=C(Cl)C(=O)N(c2cc(C)n(C(F)(F)F)n2)C1O (stereo not drawn) [Compound C13] | 3 | 2 | 2 | 2 | 2 | 0 | 1 | 1 | 1 | 1 | 2 | 1
5 | CC1=C(Cl)C(=O)N(c2nn(C)c(C(C)(C)C)c2C#N)C1O (stereo not drawn) [Compound D1] | 5 | 4 | 5 | 4 | 4 | 2 | 5 | 4 | 5 | 5 | 5 | 3
6 | CC1=C(Cl)C(=O)N(c2nn(C)c(C(C)(C)C)c2C#N)C1O (stereo not drawn) [Compound D2] | 5 | 4 | 5 | 4 | 4 | 2 | 5 | 4 | 5 | 5 | 5 | 3
7 | CC1=C(Cl)C(=O)N(c2nn(C)c(C(C)(C)C)c2Cl)C1O (stereo not drawn) [Compound D3] | 5 | 3 | 5 | 5 | 5 | 4 | 5 | 4 | 4 | 5 | 5 | 4
8 | CC1=C(Cl)C(=O)N(c2nn(C)c(C(C)(C)CCl)c2Cl)C1O (stereo not drawn) [Compound D4] | 5 | 3 | 2 | 4 | 2 | 2 | 5 | 4 | 4 | 5 | 4 | 0
9 | CSc1c(C#N)c(N2C(=O)C(Cl)=C(C)C2O)nn1C (stereo not drawn) [Compound D5] | 0 | 0 | 0 | 0 | 0 | 0 | 0 | 0 | 0 | 0 | 0 | 0
10 | CCn1nc(N2C(=O)C(Cl)=C(C)C2O)c2c1C(C)(C)CC2 (stereo not drawn) [Compound E1] | 5 | 4 | 5 | 5 | 4 | 2 | 5 | 4 | 5 | 5 | 5 | 4
11 | CCn1nc(N2C(=O)C(Cl)=C(C)C2O)c2c1C(C)(C)CC2 (stereo not drawn) [Compound E2] | 5 | 3 | 5 | 5 | 5 | 3 | 5 | 5 | 5 | 5 | 5 | 5
12 | CC1=C(Cl)C(=O)N(c2nn(C)c3c2CCCCC3(C)C)C1O (stereo not drawn) [Compound E3] | 4 | 2 | 5 | 4 | 2 | 1 | 4 | 4 | 5 | 5 | 4 | 2
